Test results as given in patent publication US6120997A, “Nucleic acid binders having an hydroxyamine motif” (The Scripps Research Institute, priority 1998, dated 2000).
Entries after “also recorded” stand apart in the source; their conditions may differ.

Assays:
Neo16-bd = test: SPR binding of aminoglycosides to Neo16-bd aptamer
Method: Conditions: 10 mM HEPES (pH 7.4), 0.1 mM EDTA and NaCl as indicated.
The binding of aminoglycosides to RNA is likely to involve substantial ionic contributions and therefore should be strongly influenced by competing buffer ions. […] We studied the salt dependence of neomycin B binding to RBE3, RBE3-neg and Neo16-bd (FIG. 14) by varying the concentration of NaCl included in the injection buffer (10 mM HEPES, pH 7.4, 0.1 mM EDTA). […] This neomycin binding motif was obtained by in vitro selection under conditions of high ionic strength.
To further improve our understanding of specific aminoglycoside recognition, we have also included an artificial aminoglycoside receptor that was evolved in vitro to recognize an aminoglycoside. A number of RNA aptamers for small molecules have been reported in recent years. Among them are aptamers that recognize the aminoglycosides tobramycin, lividomycin and kanamycin.
For comparison, the corresponding values for AS-wt are also included.
General Procedures for SPR Binding Studies done in Example 5. Samples were prepared by serial dilutions from stock solutions in RNase free microfuge tubes (Ambion) and were centrifuged at 14000 rpm for degassing. Unless otherwise noted, all binding studies were carried out using HBS buffer (Pharmacia Biosensor AB) which was used as obtained. All procedures for binding studies were automated as methods using repetitive cycles of sample injection and regeneration. Typically, buffer was injected in the first two cycles to establish a stable baseline value. Samples were injected at a flowrate of […] using either the KINJECT command. All aminoglycoside samples were injected from autoclaved 7 mm plastic vials that were capped with pierceable plastic crimp caps. To minimize carry over, samples were injected in order of increasing concentration. The running buffer was identical to the injection buffer.

AS-wt = test: SPR binding of aminoglycosides to decoding region A-site model AS-wt; design: species or system E. coli; details: for RNA binding, affinity or specificity for AS-wt (in words): Example 4; for specificity for AS-wt over negative controls (in words): Example 5, HBS-buffer
Method in brief: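 Compounds were injected over biotinylated RNA immobilized on streptavidin SPR chips in HBS (150 mM NaCl, 10 mM HEPES pH 7.4, 3.4 mM EDTA) […]. KD was obtained by non-linear fitting of equilibrium binding isotherms; the KD(AS-U1495A)/KD(AS-wt) ratio defines specificity.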

NC[C@@H]1O[C@H](O[C@H]2[C@@H](O)[C@H](O[C@@H]3[C@@H](O)[C@H](N)C[C@H](N)[C@H]3O[C@H]3O[C@H](CN)[C@@H](O)[C@H](O)[C@H]3N)O[C@@H]2CO)[C@H](N)[C@@H](O)[C@@H]1O [Neomycin B]
selectivity for binding Neo16-bd vs. RBE3 or RBE3-neg (Neo16-bd; 250 mM NaCl, 10 mM HEPES, pH 7.4, 0.1 mM EDTA): approximately 100 fold | specificity of Neo16bd relative to RBE3 (Neo16-bd; HBS buffer + 150 mM NH4Cl): greater than 300 fold | Kd (Neo16-bd; HBS buffer + 150 mM NH4Cl, read-out: Kd, Neo16bd, high salt): < 10 nM | RNA binding, affinity or specificity for AS-wt (in words) (AS-wt): tightest binder; also recorded: further improvement of the overall affinity, without affecting specificity | specificity for AS-wt over negative controls (in words) (AS-wt): specific for AS-wt over the negative control RNAs

NC[C@@H]1O[C@H](O[C@H]2[C@@H](O)[C@H](O[C@@H]3[C@@H](O)[C@H](N)C[C@H](N)[C@H]3O[C@H]3O[C@H](CO)[C@@H](O)[C@H](O)[C@H]3N)O[C@@H]2CO)[C@H](N)[C@@H](O)[C@@H]1O [Paromomycin]
discrimination between paromomycin and neomycin derivatives of the same charge, Neo16bd (Neo16-bd): greater than 20 fold | RNA binding, affinity or specificity for AS-wt (in words) (AS-wt): somewhat higher affinity but lower specificity | specificity for AS-wt over negative controls (in words) (AS-wt): specific for AS-wt over the negative control RNAs | temperature dependence of binding to AS-wt (in words) (AS-wt; Neo16bd, AS-wt and RBE3): tighter at lower temperature
